Reference: PubChem BioAssay AID248 (DTP/NCI, 2004)
Values joined by “and” are separate entries in the source; they are usually repeats but may differ in a detail not shown here. Identical values can stand only once. Toxic doses and inconclusive results are not listed. No stated cut-off is given here; in the data, active means T/C of 150% or more; inactive means T/C below 125%.

System: L1210 leukemia ip in BDF1 mice, survival T/C
Test: NCI In Vivo Anticancer Drug Screen. Data for tumor model L1210 Leukemia (intraperitoneal) in B6D2F1 (BDF1) mice
Details: endpoint: mean survival time, higher = longer survival
Procedure, shortened: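 In this screen, tumor-bearing mice given compound are compared to those given vehicle, and their survival values are reported as a treated-to-control quotient.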

[1] = dose: 100.0 mg/kg/injection, schedule: Q01DX001 (ip), vehicle: saline
[2] = dose: 200.0 mg/kg/injection, schedule: Q01DX001 (ip), vehicle: saline
[3] = dose: 400.0 mg/kg/injection, schedule: Q01DX001 (ip), vehicle: saline
[4] = dose: 100.0 mg/kg/injection, schedule: Q01DX001 (ip), vehicle: carboxymethylcellulose (CMC)
[5] = dose: 100.0 mg/kg/injection, schedule: Q01DX009 (ip), vehicle: Klucel (hydroxypropylcellulose) (HPC)
[6] = dose: 200.0 mg/kg/injection, schedule: Q01DX009 (ip), vehicle: Klucel (hydroxypropylcellulose) (HPC)
[7] = dose: 400.0 mg/kg/injection, schedule: Q01DX009 (ip), vehicle: Klucel (hydroxypropylcellulose) (HPC)
[8] = dose: 100.0 mg/kg/injection, schedule: Q04DX003 (ip), vehicle: Klucel (hydroxypropylcellulose) (HPC)
[9] = dose: 200.0 mg/kg/injection, schedule: Q04DX003 (ip), vehicle: Klucel (hydroxypropylcellulose) (HPC)
[10] = dose: 400.0 mg/kg/injection, schedule: Q04DX003 (ip), vehicle: Klucel (hydroxypropylcellulose) (HPC)
[11] = dose: 100.0 mg/kg/injection, schedule: Q04DX003 (ip), vehicle: saline with Tween-80
[12] = dose: 100.0 mg/kg/injection, schedule: Q01DX009 (ip), vehicle: saline with Tween-80
[13] = dose: 200.0 mg/kg/injection, schedule: Q01DX009 (ip), vehicle: saline with Tween-80
[14] = dose: 50.0 mg/kg/injection, schedule: Q01DX009 (ip), vehicle: saline with Tween-80

Measured: T/C

c1ccc(C(c2ccccc2)C2CSC2)cc1
inactive: dose: 50.0 mg/kg/injection, schedule: Q04DX002 (ip), vehicle: gum acacia 93 % of control | dose: 100.0 mg/kg/injection, schedule: Q04DX002 (ip), vehicle: gum acacia 100 % of control | dose: 200.0 mg/kg/injection, schedule: Q04DX002 (ip), vehicle: gum acacia 93 % of control

O=C(O)CNCc1ccccc1
inactive: dose: 100.0 mg/kg/injection, schedule: Q04DX003 (ip), vehicle: saline 102 % of control | dose: 200.0 mg/kg/injection, schedule: Q04DX003 (ip), vehicle: saline 96 % of control | dose: 400.0 mg/kg/injection, schedule: Q04DX003 (ip), vehicle: saline 96 % of control

NC(CCCO)Cc1cc2ccccc2c2ccccc12 (stereo unspecified)
inactive: [1] 101 % of control | [2] 101 % of control | [3] 109 % of control

Cc1no[n+]([O-])c1C(N)=O
inactive: dose: 100.0 mg/kg/injection, schedule: Q04DX002 (ip), vehicle: Klucel (hydroxypropylcellulose) (HPC) 98 % of control | dose: 200.0 mg/kg/injection, schedule: Q04DX002 (ip), vehicle: Klucel (hydroxypropylcellulose) (HPC) 95 % of control | dose: 400.0 mg/kg/injection, schedule: Q04DX002 (ip), vehicle: Klucel (hydroxypropylcellulose) (HPC) 98 % of control

Nc1ncnc(Nc2ccccc2Oc2ccccc2)n1
inactive: [4] 97 % of control | dose: 200.0 mg/kg/injection, schedule: Q01DX001 (ip), vehicle: carboxymethylcellulose (CMC) 92 % of control | dose: 400.0 mg/kg/injection, schedule: Q01DX001 (ip), vehicle: carboxymethylcellulose (CMC) 86 % of control

Cc1c2ccccc2nc2ccccc12
inactive: [1] 106 % of control | [2] 98 % of control | [3] 101 % of control

Cc1cc(SC#N)ncn1
inactive: dose: 5.0 mg/kg/injection, schedule: Q01DX001 (ip), vehicle: saline 98 % of control | dose: 10.0 mg/kg/injection, schedule: Q01DX001 (ip), vehicle: saline 101 % of control

NCCSC(O)(C(F)(F)F)C(F)(F)F
inactive: dose: 37.5 mg/kg/injection, schedule: Q04DX003 (ip), vehicle: saline 103 % of control | dose: 75.0 mg/kg/injection, schedule: Q01DX001 (ip), vehicle: saline 113 % of control and 101 % of control | dose: 75.0 mg/kg/injection, schedule: Q04DX003 (ip), vehicle: saline 102 % of control and 103 % of control | dose: 150.0 mg/kg/injection, schedule: Q01DX001 (ip), vehicle: saline 106 % of control and 109 % of control | dose: 150.0 mg/kg/injection, schedule: Q04DX003 (ip), vehicle: saline 104 % of control and 100 % of control

Cc1ccc(C(=O)c2cccc([N+](=O)[O-])c2)cc1
inactive: [5] 104 % of control | [6] 103 % of control | [7] 98 % of control

CCCC(=O)N(CC(C)C)CC(C)C
inactive: [8] 101 % of control | [9] 95 % of control | [10] 97 % of control

CC1(C)N=C(N)N=C(N)N1c1ccc(CCC(=O)CCl)cc1
inactive: dose: 25.0 mg/kg/injection, schedule: Q01DX001 (ip), vehicle: saline with Tween-80 92 % of control | dose: 50.0 mg/kg/injection, schedule: Q01DX001 (ip), vehicle: saline with Tween-80 95 % of control | dose: 100.0 mg/kg/injection, schedule: Q01DX001 (ip), vehicle: saline with Tween-80 95 % of control

CCC(O)C(CC(C)N(C)C)(c1ccccc1)c1ccccc1 (stereo unspecified)
inactive: [1] 108 % of control

O=C1OC(c2ccccc2)CC1N1CCOCC1 (stereo unspecified)
inactive: dose: 100.0 mg/kg/injection, schedule: Q01DX009 (ip), vehicle: saline sonified 106 % of control | [8] 98 % of control | dose: 200.0 mg/kg/injection, schedule: Q01DX009 (ip), vehicle: saline sonified 99 % of control | [9] 104 % of control | dose: 400.0 mg/kg/injection, schedule: Q01DX009 (ip), vehicle: saline sonified 97 % of control | [10] 98 % of control

NC(CCl)=NCCCN1CCOCC1
inactive: dose: 100.0 mg/kg/injection, schedule: Q04DX002 (ip), vehicle: saline 114 % of control | dose: 200.0 mg/kg/injection, schedule: Q04DX002 (ip), vehicle: saline 97 % of control

CP1(=O)CCC(Br)C1Br (stereo unspecified)
inactive: dose: 100.0 mg/kg/injection, schedule: Q04DX002 (ip), vehicle: saline with Tween-80 91 % of control | dose: 200.0 mg/kg/injection, schedule: Q04DX002 (ip), vehicle: saline with Tween-80 91 % of control | dose: 400.0 mg/kg/injection, schedule: Q04DX002 (ip), vehicle: saline with Tween-80 98 % of control

CCCC(Cl)C(=O)Nc1cccc(OC(=O)NC)c1 (stereo unspecified)
inactive: [11] 95 % of control | dose: 200.0 mg/kg/injection, schedule: Q04DX003 (ip), vehicle: saline with Tween-80 93 % of control | dose: 400.0 mg/kg/injection, schedule: Q04DX003 (ip), vehicle: saline with Tween-80 102 % of control

COc1cc(Cl)ccc1NC(=O)N(C)C1CCCCC1
inactive: [5] 104 % of control | [6] 104 % of control | [7] 95 % of control

Nc1c(Cl)nc(Cl)nc1C(F)(F)F
inactive: dose: 29.0 mg/kg/injection, schedule: Q01DX Z (ip), vehicle: methylcellulose (MC) 92 % of control | dose: 44.0 mg/kg/injection, schedule: Q01DX Z (ip), vehicle: methylcellulose (MC) 95 % of control

CC(=O)NCc1ccccc1
inactive: [12] 97 % of control | [8] 95 % of control | [13] 92 % of control | [9] 100 % of control | dose: 400.0 mg/kg/injection, schedule: Q01DX009 (ip), vehicle: saline with Tween-80 100 % of control | [10] 100 % of control

COc1ccc2c(c1OC)C(=O)O[C@@H]2[C@H]1c2c(cc3c(c2OC)OCO3)CCN1C
inactive: dose: 31.3 mg/kg/injection, schedule: Q01DX009 (ip), vehicle: saline 95 % of control and 100 % of control (2×) | dose: 50.0 mg/kg/injection, schedule: Q01DX001 (ip), vehicle: saline 96 % of control | dose: 62.5 mg/kg/injection, schedule: Q01DX009 (ip), vehicle: saline 94 % of control and 100 % of control (2×) | [1] 102 % of control | dose: 125.0 mg/kg/injection, schedule: Q01DX009 (ip), vehicle: saline 96 % of control and 97 % of control and 91 % of control | [2] 107 % of control | dose: 250.0 mg/kg/injection, schedule: Q01DX009 (ip), vehicle: saline 102 % of control and 104 % of control and 91 % of control | [3] 111 % of control

NCc1c(Cl)c(Cl)c(Cl)c(CN)c1Cl
inactive: dose: 50.0 mg/kg/injection, schedule: Q01DX001 (ip), vehicle: carboxymethylcellulose (CMC) 89 % of control | [14] 97 % of control | [4] 94 % of control | [12] 102 % of control | [13] 93 % of control

CN(N=O)C(=O)NCCSc1ncnc2nc[nH]c12
inactive: dose: 6.25 mg/kg/injection, schedule: Q01DX Z (ip), vehicle: carboxymethylcellulose (CMC) 103 % of control | dose: 12.5 mg/kg/injection, schedule: Q01DX Z (ip), vehicle: carboxymethylcellulose (CMC) 95 % of control | dose: 25.0 mg/kg/injection, schedule: Q01DX Z (ip), vehicle: carboxymethylcellulose (CMC) 107 % of control | dose: 50.0 mg/kg/injection, schedule: Q01DX Z (ip), vehicle: carboxymethylcellulose (CMC) 119 % of control

N#C/C(=C\c1ccc([N+](=O)[O-])o1)[N+](=O)[O-]
inactive: dose: 25.0 mg/kg/injection, schedule: Q01DX009 (ip), vehicle: saline with Tween-80 110 % of control | [14] 96 % of control | [12] 104 % of control | [11] 106 % of control
